In brackets after ≈: the same amount, converted by molar mass. Residues, ends and D or L forms follow the SMILES beside them.
How the values were obtained:
human erythrocytes = test: Hemolysis assay; assay type: cell-based; conditions: 2% erythrocytes in PBS, 1 h 37 °C, absorbance 550 nm; up to / at 256 µg/mL
Experimental: For the hemolytic assay, mouse and human whole blood was diluted with PBS (pH 7.4) and centrifuged for 10 min at 500× g. After removing the supernatant and rinsing the pellet three times with PBS, we resuspended the erythrocytes in PBS at 2% volume. The blood solution was added to the solution of peptides with two-fold serial dilution on a 96-well plate. After incubation for an hour at 37 °C, the plate was centrifuged at 2500× g for 10 min, and the absorbance of the supernatant was measured at 550 nm. The PBS-treated sample was the negative control, and the 0.1% Triton X-100–treated sample was the positive control. To measure white blood cell toxicity, mouse and human PBMCs were freshly isolated as previously described, and 70% ethanol (positive control) or AMPR-22 was administered using two-fold diluted concentrations (0 to 256 μg/mL) for 30 min. To measure cell death, a LIVE/DEAD® fixable green dead cell stain kit (Thermo Fisher Scientific, Waltham, MS, USA) was used following the manufacturer′s instructions, and flow cytometry was performed using a FACS Canto II (BD Biosciences, CA, USA). The toxicity of AMPR-22 was compared with negative (PBS-treated) and positive controls, and the data were analyzed using FlowJo software (Tree Star, OR, USA).

[1] = test system: Methicillin-resistant S. aureus (MRSA) ATCC 33591; assay type: cell-based, Staphylococcus aureus; conditions: Table 2; ATCC 33591; modified MBC
Experimental: (§1) The minimum bactericidal concentration (MBC) was determined as previously described with minor modifications. Briefly, bacteria were cultured in the mid-log phase and diluted to 5 × 10^5 colony-forming unit (CFU)/mL in 10 mM sodium phosphate buffer (pH 7.4) with a 1% volume of TS broth. They were incubated for 1 h with various peptides which were two-fold diluted serially from 64 μg/mL to 0 μg/mL concentrations in a 96-well plate. The samples were inoculated TS agar plate and incubated overnight at 37 °C. The value of MBC was determined at the lowest concentrations at which no colonies were identified.
(§2) We used the CFU counting method to measure antibacterial activity, with all bacteria cultured to the mid-log phase in an appropriate broth medium. Bacterial CFUs were counted after overnight culture at 37 °C on TS or LB agar plates. The MBC value and antibacterial activity in blood components were determined as previously described. Mouse and human whole blood were collected and diluted with PBS (pH 7.4) to measure the ex vivo antibacterial activity of AMPR-22. For that test, AMPR-22 (10 μg) was added to each whole blood solution and incubated at 37 °C with shaking at 200 rpm. At each time point, it was incubated with bacteria (1 × 10^3 CFU) for 30 min. Each sample was inoculated on an LB agar plate, and CFU counting was performed. To measure the in vivo activity of AMPR-22, 1 × 10^8 CFU of bacteria were injected into BALB/c mice, and an hour later, 10 mg/kg of the test peptides were injected. Blood samples were collected by tail cut, serially diluted with PBS (pH 7.4), and inoculated on LB-agar plates, followed by CFU counting. To estimate the functional half-life of AMPR-22, 40 mg/kg of each tested peptide were injected into mice. Whole blood sampling was performed by cardiac puncture, and the plasma was isolated by centrifugation (2000× g, 15 min). The isolated plasma was incubated with bacteria (1 × 10^3 CFU) for an hour, and then the CFU counting method was performed.

[2] = test system: Vancomycin-resistant S. aureus NCCP 15872; assay type: cell-based, Staphylococcus aureus; conditions: Vancomycin-resistant NCCP 15872, 1 h
Experimental: as §1, §2

[3] = test system: Carbapenem-resistant K. pneumoniae, clinical isolate; assay type: cell-based, Klebsiella pneumoniae; conditions: 1 h
Text: (§3) Acinetobacter baumannii (ATCC 19606), B. subtilis (ATCC 6633), E. aerogenes (ATCC 13048), E. coli (ATCC 25922), E. faecalis (ATCC 19433), E. faecium (ATCC 19434), K. pneumoniae (ATCC 13883), P. aeruginosa (ATCC 27853), S. aureus (ATCC 29213), S. sindenensis (ATCC 23963), and MRSA (ATCC 33591) were purchased from the American Type Culture Collection (ATCC; Gaithersburg, MD, USA). Streptococcus pneumoniae (NCCP 14585), vancomycin-resistant E. faecium (NCCP 11522), and vancomycin-resistant S. aureus (NCCP 15872) were purchased from the National Culture Collection for Pathogens (NCCP; Cheongju, Korea). The isolation and use of carbapenem-resistant bacterial strains from a patient were approved (2015AN0129) by the Institutional Review Board (IRB) of Korea University Hospital. […]
(§4) The minimum bactericidal concentration (MBC) was determined as previously described with minor modifications. […] The value of MBC was determined at the lowest concentrations at which no colonies were identified.
(§5) We used the CFU counting method to measure antibacterial activity, with all bacteria cultured to the mid-log phase in an appropriate broth medium. Bacterial CFUs were counted after overnight culture at 37 °C on TS or LB agar plates. The MBC value and antibacterial activity in blood components were determined as previously described. […]

[4] = test system: Vancomycin-resistant E. faecium NCCP 11522; assay type: cell-based, Enterococcus faecium; conditions: Vancomycin-resistant NCCP 11522, 1 h
Experimental: as §1
We used the CFU counting method to measure antibacterial activity, with all bacteria cultured to the mid-log phase in an appropriate broth medium. Bacterial CFUs were counted after overnight culture at 37 °C on TS or LB agar plates. The MBC value and antibacterial activity in blood components were determined as previously described. Mouse and human whole blood were collected and diluted with PBS (pH 7.4) to measure the ex vivo antibacterial activity of AMPR-22. For that test, AMPR-22 (10 μg) was added to each whole blood solution and incubated at 37 °C with shaking at 200 rpm. At each time point, it was incubated with bacteria (1 × 10^3 CFU) for 30 min. Each sample was inoculated on an LB agar plate, and CFU counting was performed. […]

[5] = test system: Carbapenem-resistant P. aeruginosa (CRPA), clinical isolate; assay type: cell-based, Pseudomonas aeruginosa; conditions: 1 h
Text: Acinetobacter baumannii (ATCC 19606), B. subtilis (ATCC 6633), E. aerogenes (ATCC 13048), E. coli (ATCC 25922), E. faecalis (ATCC 19433), E. faecium (ATCC 19434), K. pneumoniae (ATCC 13883), P. aeruginosa (ATCC 27853), S. aureus (ATCC 29213), S. sindenensis (ATCC 23963), and MRSA (ATCC 33591) were purchased from the American Type Culture Collection (ATCC; Gaithersburg, MD, USA). Streptococcus pneumoniae (NCCP 14585), vancomycin-resistant E. faecium (NCCP 11522), and vancomycin-resistant S. aureus (NCCP 15872) were purchased from the National Culture Collection for Pathogens (NCCP; Cheongju, Korea). The isolation and use of carbapenem-resistant bacterial strains from a patient were approved (2015AN0129) by the Institutional Review Board (IRB) of Korea University Hospital. CRPA, CRKP, and CRAB were clinically isolated in Korea University Hospital (Seoul, Korea). CRPA was confirmed to be resistant to piperacillin, piperacillin-tazobactam, ceftazidime, imipenem, meropenem, gentamicin, amikacin, and ciprofloxacin. CRAB was confirmed to be resistant to piperacillin, piperacillin-tazobactam, cefepime, ceftazidime, imipenem, meropenem, gentamicin, amikacin, and ciprofloxacin. CRKP was confirmed to be resistant to piperacillin-tazobactam, cefepime, ceftazidime, imipenem, gentamicin, and ciprofloxacin. All strains were stored at –80 °C in 50% glycerol and 50% Luria-Bertani (LB) or tryptic soy (TS) broth, grown on LB or TS plates, and aerated at 37 °C.
as §1, §2

[6] = test system: Enterobacter aerogenes ATCC 13048; test: Modified MBC determination; assay type: cell-based; conditions: Table 2
Experimental: as §1, §2

[7] = test system: Bacillus subtilis ATCC 6633; test: Modified MBC determination; assay type: cell-based; conditions: Table 2
Experimental: as §1, §2

[8] = test system: Escherichia coli ATCC 25922; test: Modified MBC determination; assay type: cell-based; conditions: Table 2
Experimental: as §1, §2

[9] = test system: Enterococcus faecalis ATCC 19433; test: Modified MBC determination; assay type: cell-based; conditions: Table 2
Experimental: as §1, §2

[10] = test system: Enterococcus faecium ATCC 19434; test: Modified MBC determination; assay type: cell-based; conditions: Table 2
Experimental: as §1, §2

[11] = test system: Acinetobacter baumannii ATCC 19606; test: Modified MBC determination; assay type: cell-based; conditions: Table 2
Experimental: as §1, §2

[12] = test system: Klebsiella pneumoniae ATCC 13883; test: Modified MBC determination; assay type: cell-based; conditions: Table 2
Experimental: as §1, §2

[13] = test system: Streptomyces sindenensis ATCC 23963; test: Modified MBC determination; assay type: cell-based; conditions: Table 2
Experimental: as §1, §2

[14] = test system: Carbapenem-resistant A. baumannii, clinical isolate; assay type: cell-based, Acinetobacter baumannii; conditions: 1 h
Text: as §3, §4, §5

[15] = test system: Streptococcus pneumoniae NCCP 14585; assay type: cell-based; conditions: NCCP 14585, 1 h
Experimental: as §1, §2

[16] = test system: Pseudomonas aeruginosa ATCC 27853; assay type: cell-based
Experimental: as §1, §2

[17] = test system: Staphylococcus aureus ATCC 29213; assay type: cell-based
Experimental: as §1, §2

P. aeruginosa = test: Serial passage assay (acquisition of drug resistance); assay type: cell-based, Pseudomonas aeruginosa; conditions: sub-MBC treatment
Experimental: For the PI uptake assay, bacteria were cultured in the mid-log phase and diluted to 5 × 10^5 CFU/mL in PBS (pH 7.4). The peptides were treated with 40 μg/mL for 10 min, and then 10 μM PI was added and incubated for 20 min. The PI fluorescence was measured with a flow cytometric assay using a FACS Canto II (BD Biosciences, CA, USA), and the data were analyzed using FlowJo software (Tree Star, Ashland, OR, USA). NPN uptake and a membrane depolarization assay were performed as previously described, with some changes. Briefly, 1 × 10^4 CFU/mL of bacteria were place on a 96-well plate, and then 10 μM NPN or 4 μM DiSC3(5) was added, and AMPR-22 was administered. The fluorescence signal was measured for 10 min using a SpectraMax Plus 384 microplate reader (Molecular Devices, San Jose, CA, USA). For the NPN uptake assay, AMPR-22 was administered 3 min after the start of the fluorescence measurements. The ATP leakage assay was performed using a BacTiter-glo™ kit (Promega, Madison, WI, USA) and the manufacturer’s instructions with minor modifications. […] The luminescence signal was measured using a SpectraMax Plus 384 microplate reader (Molecular Devices, San Jose, CA, USA). […] Sub-MBC concentrations of peptide were administered to 1 mL of cultured cells, and then the MBC values were determined for every passage. […]

## CC[C@H](C)[C@H](NC(=O)CNC(=O)[C@H](CCSC)NC(=O)CNC(=O)[C@@H](NC(=O)[C@H](C)NC(=O)[C@H](CCSC)NC(=O)[C@H](Cc1ccccc1)NC(=O)[C@@H](NC(=O)CNC(=O)[C@H](Cc1ccccc1)NC(=O)[C@@H](NC(=O)CNC(=O)CNC(=O)[C@H](CO)NC(=O)[C@H](CCC(N)=O)NC(=O)[C@H](CCSC)NC(=O)[C@H](CCSC)NC(=O)[C@@H](NC(=O)[C@@H](N)CCCCN)[C@@H](C)O)[C@@H](C)O)[C@@H](C)O)[C@@H](C)CC)C(=O)N[C@@H](CCCNC(=N)N)C(=O)O [AMPR-11] (H-KTMMQSGGTFGTFMAIGMGIR-OH)
Human erythrocytes
  Hemolytic activity against human erythrocytes: low hemolytic activity

## CC[C@H](C)[C@H](NC(=O)CNC(=O)[C@H](CCSC)NC(=O)CNC(=O)[C@@H](NC(=O)[C@H](C)NC(=O)[C@H](CCSC)NC(=O)[C@H](Cc1ccccc1)NC(=O)[C@@H](NC(=O)CNC(=O)[C@H](Cc1ccccc1)NC(=O)[C@H](CCCCN)NC(=O)CNC(=O)CNC(=O)[C@H](CCCCN)NC(=O)[C@H](CCCCN)NC(=O)[C@H](CCSC)NC(=O)[C@H](CCSC)NC(=O)[C@H](CCCCN)NC(=O)[C@@H](N)CCCCN)[C@@H](C)O)[C@@H](C)CC)C(=O)N[C@@H](CCCNC(=N)N)C(=O)O [AMPR-21] (H-KKMMKKGGKFGTFMAIGMGIR-OH)
[1]
  MBC Value, Methicillin-resistant S. aureus: 8 µg/mL (≈ 3.45 µM)
[2]
  MBC Value, Vancomycin-resistant S. aureus: 8 µg/mL (≈ 3.45 µM)
[3]
  MBC Value, Carbapenem-resistant K. pneumoniae: 8 µg/mL (≈ 3.45 µM)
[4]
  MBC Value, Vancomycin-resistant E. faecium: 8 µg/mL (≈ 3.45 µM)
[5]
  MBC Value, CRPA: 4 µg/mL (≈ 1.73 µM)
  MBC Value, Carbapenem-resistant P. aeruginosa: 4 µg/mL (≈ 1.73 µM)
Human erythrocytes
  Hemolytic activity against human erythrocytes: negligible hemolytic activity
[6]
  MBC Value, Enterobacter aerogenes: 4 µg/mL (≈ 1.73 µM)
[7]
  MBC Value, Bacillus subtilis: 2 µg/mL (≈ 0.863 µM)
[8]
  MBC Value, Escherichia coli: 4 µg/mL (≈ 1.73 µM)
[9]
  MBC Value, Enterococcus faecalis: 8 µg/mL (≈ 3.45 µM)
[10]
  MBC Value, Enterococcus faecium: 8 µg/mL (≈ 3.45 µM)
[11]
  MBC Value, Acinetobacter baumannii: 4 µg/mL (≈ 1.73 µM)
[12]
  MBC Value, Klebsiella pneumoniae: 4 µg/mL (≈ 1.73 µM)
[13]
  MBC Value, Streptomyces sindenensis: 4 µg/mL (≈ 1.73 µM)
[14]
  MBC Value, Carbapenem-resistant A. baumannii: 2 µg/mL (≈ 0.863 µM)
[15]
  MBC Value, Streptococcus pneumoniae: 8 µg/mL (≈ 3.45 µM)
[16]; ATCC 27853, 1 h
  MBC Value, P. aeruginosa: 4 µg/mL (≈ 1.73 µM)
[16]; Table 2, ATCC 27853, modified MBC
  MBC Value, Pseudomonas aeruginosa: 4 µg/mL (≈ 1.73 µM)
[17]; ATCC 29213, 1 h, pH 7.4
  MBC Value, S. aureus: 8 µg/mL (≈ 3.45 µM)
[17]; Table 2, ATCC 29213, modified MBC
  MBC Value, Staphylococcus aureus: 4 µg/mL (≈ 1.73 µM)

## CNC(C)C1CCC(N)C(OC2C(N)CC(N)C(OC3OCC(C)(O)C(NC)C3O)C2O)O1 (stereo not drawn) [gentamicin]
P. aeruginosa
  Passages after which resistance developed: nine
P. aeruginosa; 30 passages
  Increase of the modified MBC value after 30 passages: 64 fold

— PMC8348110, “A Novel Peptide Derived from the Transmembrane Domain of Romo1 Is a Promising Candidate for Sepsis Treatment and Multidrug-Resistant Bacteria” (International Journal of Molecular Sciences, 2021)
